Tests used:
[1] = Log P (n-octanol/water) of perfuming compounds
[2] = physchem; settings: n-octanol/water
[3] = Volatility of perfuming compounds in air; assay type: physicochemical
[4] = Odor threshold of perfuming compounds in air
[5] = Table 5, perfuming compounds having a green note

| Log P (n-octanol/water) [1, 5] | logP [2] | Volatility ([3]; Table 4, watery note) [μg/l air] | Volatility [3, 5] [μg/l air] | Log P (n-octanol/water) ([1]; Table 7, citrus note) | Volatility ([3]; Table 7, citrus note) [μg/l air] | Compound | Odor Threshold ([4]; Table 4, watery note) [μg/l air] | Odor Threshold ([4]; Table 7, citrus note) [μg/l air] |
| --- | --- | --- | --- | --- | --- | --- | --- | --- |
| 3.51 | 3.51 | 91.76 | 91.76 | – | – | CCCCCCC#CC(=O)OC [METHYL 2-NONYNOATE] | 1.60E−03 | – |
| – | 2 | – | 68294.85 | 2.00 | 68294.85 | CCCCCC=O [hexanal] | – | 1.76E−03 |
| – | 3.42 | – | 2777.63 | 3.42 | 2777.63 | CCCCCCCCC=O [nonanal] | – | 8.14E−03 |
